Results: PMC10387993, “New pyrimidine-N-β-D-glucosides: synthesis, biological evaluation, and molecular docking investigations” (Turkish Journal of Chemistry, 2023)
Converted amounts (≈) assume the structure as drawn. Where two headings read alike, the source gives them in different places.

Key:
Format in all cases: cell-based
C6 (Rat brain glioma) = test: cells; conditions: Rattus norvegicus; for LC50 (concentration giving 50% net cell loss relative to time zero): read-out: LC50; for GI50 / IC50 / IC (total growth inhibition): C6, MTT; for IC50: read-out: IC50; for IC (total growth inhibition): read-out: TGI
In short: (§1)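 In this MTT proliferation screen, formazan formed over 4 h was read at 560 nm against a 690 nm reference. Each line was tested at least three times, and the IC50 was taken as the concentration inhibiting half of the cells.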

Hep3B = test: cells; conditions: Homo sapiens; for GI50 / IC50 / IC (total growth inhibition): MTT; for IC50: read-out: IC50; for IC (total growth inhibition): read-out: TGI; for LC50 (concentration causing 50% net cell loss relative to time zero): read-out: LC50
In short: as §1

HeLa = test: cells; conditions: Homo sapiens; for GI50 / IC50 / IC (total growth inhibition): MTT; for IC50: read-out: IC50; for IC (total growth inhibition): read-out: TGI; for LC50 (concentration causing 50% net cell loss): read-out: LC50
In short: as §1

HT29 = test: cells; conditions: Homo sapiens; for LC50 (concentration giving 50% net cell loss relative to time zero): HT-29, read-out: LC50; for GI50 / IC50 / IC (total growth inhibition): HT-29, HT29, MTT; for IC50: read-out: IC50; for IC (total growth inhibition): read-out: TGI
In short: as §1

MCF7 = test: cells; conditions: Homo sapiens; for LC50 (concentration causing 50% net cell loss relative to time zero): MCF7, read-out: LC50; for GI50 / IC50 / IC (total growth inhibition): MCF7, MTT; for IC50: read-out: IC50; for IC (total growth inhibition): read-out: TGI
In short: as §1

A549 = test: cells; conditions: Homo sapiens; for LC50 (concentration causing 50% net cell loss): A549, read-out: LC50; for GI50 / IC50 / IC (total growth inhibition): A549, MTT; for IC50: read-out: IC50; for IC (total growth inhibition): read-out: TGI
In short: as §1

[1] = LDH cytotoxic activity assay, C6; conditions: rat, C6 glioma cells; for cytotoxicity at 24 h, 25 μg/mL: C6, 25 μg/mL; for cytotoxicity at 24 h, 50 μg/mL: C6, 50 μg/mL; for cytotoxicity at 24 h, 75 μg/mL: C6, 75 μg/mL; for cytotoxicity at 24 h, 100 μg/mL: C6, 100 μg/mL
In short: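 Harvest ~80%-confluent cells with trypsin-EDTA, seed ~5 × 10^3 per well in DMEM or RPMI 1640 containing 10% FBS, then add compound at 25–100 μg/mL (four levels) for 24 h at 37 °C. Finish by reading LDH activity at 492–630 nm.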

S. gordonii NCTC 7870 = test: Microdilution MIC assay; conditions: Streptococcus gordonii, NCTC7870; S. gordonii NCTC 7870, 24 h at 35 °C
In short: (§2)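 Microwell dilution; 24 h, 35 °C; visual read; MIC = lowest conc. without turbidity.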

[2] = tested on: S. aureus MSSA ATCC 29213; test: Microdilution MIC assay; conditions: S. aureus MSSA ATCC 29213, 24 h at 35 °C
In short: as §2

E. coli ATCC 25922 = test: Microdilution MIC assay; conditions: Escherichia coli, ATCC25922; E. coli ATCC 25922, 24 h at 35 °C
In short: as §2

[3] = tested on: P. aeruginosa AGME ATCC 27853; test: Microdilution MIC assay; conditions: Pseudomonas aeruginosa, ATCC27853; P. aeruginosa AGME ATCC 27853, 24 h at 35 °C
In short: as §2

[4] = tested on: S. aureus MRSA ATCC 46300; test: Microdilution MIC assay; conditions: Staphylococcus aureus; S. aureus MRSA ATCC 46300, 24 h at 35 °C; read-out: MIC
In short: as §2

[5] = tested on: E. faecalis VRE ATCC 19433; test: Microdilution MIC assay; conditions: Enterococcus faecalis; E. faecalis VRE ATCC 19433, 24 h at 35 °C
In short: as §2

E. faecalis ATCC 29212 = test: Microdilution MIC assay; conditions: E. faecalis ATCC 29212, 24 h at 35 °C
In short: as §2

[6] = tested on: A. actinomycetemcomitans ATCC 33384; test: Microdilution MIC assay; conditions: Aggregatibacter actinomycetemcomitans, ATCC33384; A. actinomycetemcomitans ATCC 33384, 24 h at 35 °C
In short: as §2

E. coli ESBL ATCC 35218 = test: Microdilution MIC assay; conditions: Escherichia coli, ATCC35218; E. coli ESBL ATCC 35218, 24 h at 35 °C
In short: as §2

S. mutans ATCC 35668 = test: Microdilution MIC assay; conditions: S. mutans ATCC 35668, 24 h at 35 °C
In short: as §2

[7] = Staphylococcus aureus, 24 h, read-out: MIC
[8] = Enterococcus faecalis, ATCC29212, 24 h, read-out: MIC
[9] = Streptococcus mutans, ATCC35668, 24 h, read-out: MIC

CC(=O)OC[C@H]1O[C@@H](Nc2nc(-c3ccncc3)cc(-c3ccccc3C)n2)[C@H](OC(C)=O)[C@@H](OC(C)=O)[C@@H]1OC(C)=O [Compound 12, 2,3,4,6-tetra-O-acetyl-N-[4-(2-methylphenyl)-6-pyridin-4-ylpyrimidin-2-yl]-β-D-glucopyranosylamine]
LC50 (concentration giving 50% net cell loss relative to time zero) (C6 (Rat brain glioma)): 139 µg/mL (≈ 234 µM)
GI50 (C6 (Rat brain glioma)): 2.03 µg/mL (≈ 3.43 µM)
IC50 (C6 (Rat brain glioma)): 13 µg/mL (≈ 21.9 µM)
IC (total growth inhibition) (C6 (Rat brain glioma)): 6.49 µg/mL
GI50 (Hep3B): 4.88 µg/mL (≈ 8.23 µM)
IC50 (Hep3B): > 500 µg/mL
IC (total growth inhibition) (Hep3B): > 500 µg/mL
LC50 (concentration causing 50% net cell loss relative to time zero) (Hep3B): > 500 µg/mL
GI50 (HeLa): > 500 µg/mL
IC50 (HeLa): > 500 µg/mL
IC (total growth inhibition) (HeLa): > 500 µg/mL
LC50 (concentration causing 50% net cell loss) (HeLa): > 500 µg/mL
LC50 (concentration giving 50% net cell loss relative to time zero) (HT29): > 500 µg/mL
GI50 (HT29): 2.23 µg/mL (≈ 3.76 µM)
IC50 (HT29): 298 µg/mL (≈ 503 µM)
IC (total growth inhibition) (HT29): > 500 µg/mL
LC50 (concentration causing 50% net cell loss relative to time zero) (MCF7): > 500 µg/mL
GI50 (MCF7): 1.22 µg/mL (≈ 2.06 µM)
IC50 (MCF7): > 500 µg/mL
IC (total growth inhibition) (MCF7): > 500 µg/mL
LC50 (concentration causing 50% net cell loss) (A549): > 500 µg/mL
GI50 (A549): > 500 µg/mL
IC50 (A549): > 500 µg/mL
IC (total growth inhibition) (A549): > 500 µg/mL
cytotoxicity at 24 h, 25 μg/mL [1]: 21.1%
cytotoxicity at 24 h, 50 μg/mL [1]: 46.7%
cytotoxicity at 24 h, 75 μg/mL [1]: 75.2%
cytotoxicity at 24 h, 100 μg/mL [1]: 87.4%
MIC (S. gordonii NCTC 7870): > 1000 µg/mL
MIC [2, 7]: 1000 µg/mL (≈ 1690 µM)
MIC (E. coli ATCC 25922): > 1000 µg/mL
MIC [3]: > 1000 µg/mL
MIC [4]: 500 µg/mL (≈ 844 µM)
MIC [5]: 1000 µg/mL (≈ 1690 µM)
MIC (E. faecalis ATCC 29212; [8]): 250 µg/mL (≈ 422 µM)
MIC [6]: > 1000 µg/mL
MIC (E. coli ESBL ATCC 35218): > 1000 µg/mL
MIC (S. mutans ATCC 35668): 62.5 µg/mL (≈ 105 µM)
MIC (S. mutans ATCC 35668; [9]): 62.5 to 125 µg/mL (≈ 105 to 211 µM)

CC(=O)OC[C@H]1O[C@@H](Nc2nc(-c3cccc(C)c3)cc(-c3ccccn3)n2)[C@H](OC(C)=O)[C@@H](OC(C)=O)[C@@H]1OC(C)=O [Compound 13, 2,3,4,6-tetra-O-acetyl-N-[4-(3-methylphenyl)-6-pyridin-2-ylpyrimidin-2-yl]-β-D-glucopyranosylamine]
LC50 (concentration giving 50% net cell loss relative to time zero) (C6 (Rat brain glioma)): 33.9 µg/mL (≈ 57.2 µM)
GI50 (C6 (Rat brain glioma)): 1.97 µg/mL (≈ 3.32 µM)
IC50 (C6 (Rat brain glioma)): 7.55 µg/mL (≈ 12.7 µM)
IC (total growth inhibition) (C6 (Rat brain glioma)): 4.7 µg/mL
GI50 (Hep3B): 2.56 µg/mL (≈ 4.32 µM)
IC50 (Hep3B): > 500 µg/mL
IC (total growth inhibition) (Hep3B): > 500 µg/mL
LC50 (concentration causing 50% net cell loss relative to time zero) (Hep3B): > 500 µg/mL
GI50 (HeLa): 4.48 µg/mL (≈ 7.56 µM)
IC50 (HeLa): 60.4 µg/mL (≈ 102 µM)
IC (total growth inhibition) (HeLa): 17.3 µg/mL
LC50 (concentration causing 50% net cell loss) (HeLa): 224 µg/mL (≈ 378 µM)
LC50 (concentration giving 50% net cell loss relative to time zero) (HT29): > 500 µg/mL
GI50 (HT29): 2.94 µg/mL (≈ 4.96 µM)
IC50 (HT29): > 500 µg/mL
IC (total growth inhibition) (HT29): > 500 µg/mL
LC50 (concentration causing 50% net cell loss relative to time zero) (MCF7): > 500 µg/mL
GI50 (MCF7): 1.84 µg/mL (≈ 3.1 µM)
IC50 (MCF7): 297 µg/mL (≈ 500 µM)
IC (total growth inhibition) (MCF7): 397 µg/mL
LC50 (concentration causing 50% net cell loss) (A549): > 500 µg/mL
GI50 (A549): > 500 µg/mL
IC50 (A549): > 500 µg/mL
IC (total growth inhibition) (A549): > 500 µg/mL
cytotoxicity at 24 h, 25 μg/mL [1]: 15%
cytotoxicity at 24 h, 50 μg/mL [1]: 51.2%
cytotoxicity at 24 h, 75 μg/mL [1]: 77.1%
cytotoxicity at 24 h, 100 μg/mL [1]: 98.3%
MIC (S. gordonii NCTC 7870): > 1000 µg/mL
MIC [2]: 125 µg/mL (≈ 211 µM)
MIC [2, 7]: 62.5 to 125 µg/mL (≈ 105 to 211 µM)
MIC (E. coli ATCC 25922): > 1000 µg/mL
MIC [3]: > 1000 µg/mL
MIC [4]: 500 µg/mL (≈ 844 µM)
MIC [5]: 1000 µg/mL (≈ 1690 µM)
MIC (E. faecalis ATCC 29212): 31.25 µg/mL (≈ 52.7 µM)
MIC (E. faecalis ATCC 29212; [8]): 31.2 to 125 µg/mL (≈ 52.7 to 211 µM)
MIC [6]: > 1000 µg/mL
MIC (E. coli ESBL ATCC 35218): > 1000 µg/mL
MIC (S. mutans ATCC 35668): 125 µg/mL (≈ 211 µM)
MIC (S. mutans ATCC 35668; [9]): 62.5 to 125 µg/mL (≈ 105 to 211 µM)
